Experimental data as given in patent US5968751A, “Method for detecting the presence of protein C antibody in a fluid sample” (The Scripps Research Institute, priority 1997, dated 1999).
No end group written: not given here.

Columns and labels:
APC [1] = molecular target: T1, APC (Homo sapiens, UniProt P04070); assay: APC-catalyzed inactivation of Factor Va, residual Va by prothrombinase assay; type: biochemical; design: Protein C consists of a 155 amino acid residue light chain and a 262 amino acid residue heavy chain; from tissue; Factor Va a gift (Tans and Rosing, Univ. of Limburg)
Protocol: The APC catalyzed inactivation of Factor Va assays were performed in 96-well flat bottom ELISA plates (Stockwell Scientific, Walnut, Calif.). The reactions were performed either in the presence or absence of phospholipid vesicles to determine if either PC311-325 or PC142-155 inhibited APC anticoagulant activity by inhibiting the binding of APC or its substrate to phospholipids or if it was independent of phospholipid surfaces. This determination was relevant in light of reports that the assembly of APC with its substrates Va and VIIIa on the phospholipid surface appeared to be mediated mainly by the Gla-domain of APC in the presence of calcium which was crucial for exerting significant anticoagulant activity. [Sugo et al., J. Biol. Chem., 260:10453-10457 (1985); […] et al., J. Biol. Chem., 261:9684-9693 (1986); Solymoss et al., J. Biol. Chem., 263:14884-14890 (1988)]. For the preparation of phospholipid residues for use in the assay bovine brain phosphatidylserine in chloroform […]/methanol (CH3 OH) and soybean phosphatidylcholine (Type III-S, CCl4 solution) were purchased from Sigma and were reported to be at least 98% homogeneous (supplier's estimates). To prepare vesicles, phosphatidylserine was admixed with phosphatidylcholine (20% phosphatidylserine/80% phosphatidylcholine; M/M) and the organic solvent evaporated under a stream of nitrogen. The resultant phospholipid admixture was resuspended in 0.05 M TBS-Az at pH 7.4 as a 1.25 mM solution by vortexing. Single bilayer vesicles were obtained during sonication by direct probe (Heat-Systems-Ultrasonics, Inc., […] Sonicator) for 6×30 second bursts at 30 W in 2 minute intervals at 4° C. The reaction buffer consisted of 0.05 M Tris-HCl, at pH 7.4 containing 0.1 M NaCl, 0.02% NaN3, 0.5% BSA and 2.5 mM CaCl2. […] M/M) either at 22° C. (in the presence of phospholipids) or at 37° C. (in the absence of phospholipids). […] The monoclonal antibody C3 which specifically recognizes the light-chain of PC as well as APC was prepared as in Example 2. Factor Va (a gift from Drs. Tans and Rosing, Univ. of Limburg, the Netherlands) was first admixed with or without PC311-325 or PC142-155 and maintained for 20 minutes either at 22° C. or at 37° C. prior to admixture with APC. […] Factor Va was determined via its cofactor activity in the activation of prothrombin by Factor Xa. […] The molar concentration of Factor Xa was determined by active site titration as described by Chase et al., Biochem. Biophys. […]
Target sequence in this assay (P12259 29-737 partner limits assumed): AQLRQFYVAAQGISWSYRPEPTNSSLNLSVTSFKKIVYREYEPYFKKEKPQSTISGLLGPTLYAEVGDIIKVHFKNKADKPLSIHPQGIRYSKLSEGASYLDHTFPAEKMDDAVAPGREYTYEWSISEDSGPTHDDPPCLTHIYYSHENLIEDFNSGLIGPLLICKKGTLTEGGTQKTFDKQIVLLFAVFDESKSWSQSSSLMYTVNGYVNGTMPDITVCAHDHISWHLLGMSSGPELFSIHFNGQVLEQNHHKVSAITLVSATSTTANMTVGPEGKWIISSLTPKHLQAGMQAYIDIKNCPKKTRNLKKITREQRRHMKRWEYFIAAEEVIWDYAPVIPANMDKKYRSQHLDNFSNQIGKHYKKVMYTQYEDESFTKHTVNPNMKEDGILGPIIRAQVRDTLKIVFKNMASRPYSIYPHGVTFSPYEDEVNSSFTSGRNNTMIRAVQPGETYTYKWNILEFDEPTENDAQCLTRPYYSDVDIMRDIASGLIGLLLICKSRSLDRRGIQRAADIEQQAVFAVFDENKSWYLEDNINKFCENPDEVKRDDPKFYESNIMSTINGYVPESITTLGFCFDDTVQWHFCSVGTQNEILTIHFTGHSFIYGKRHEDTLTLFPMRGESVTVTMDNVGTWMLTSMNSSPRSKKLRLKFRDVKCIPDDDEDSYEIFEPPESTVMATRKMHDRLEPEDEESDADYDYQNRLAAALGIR
Target sequence in this assay (P12259 1574-2224 partner limits assumed): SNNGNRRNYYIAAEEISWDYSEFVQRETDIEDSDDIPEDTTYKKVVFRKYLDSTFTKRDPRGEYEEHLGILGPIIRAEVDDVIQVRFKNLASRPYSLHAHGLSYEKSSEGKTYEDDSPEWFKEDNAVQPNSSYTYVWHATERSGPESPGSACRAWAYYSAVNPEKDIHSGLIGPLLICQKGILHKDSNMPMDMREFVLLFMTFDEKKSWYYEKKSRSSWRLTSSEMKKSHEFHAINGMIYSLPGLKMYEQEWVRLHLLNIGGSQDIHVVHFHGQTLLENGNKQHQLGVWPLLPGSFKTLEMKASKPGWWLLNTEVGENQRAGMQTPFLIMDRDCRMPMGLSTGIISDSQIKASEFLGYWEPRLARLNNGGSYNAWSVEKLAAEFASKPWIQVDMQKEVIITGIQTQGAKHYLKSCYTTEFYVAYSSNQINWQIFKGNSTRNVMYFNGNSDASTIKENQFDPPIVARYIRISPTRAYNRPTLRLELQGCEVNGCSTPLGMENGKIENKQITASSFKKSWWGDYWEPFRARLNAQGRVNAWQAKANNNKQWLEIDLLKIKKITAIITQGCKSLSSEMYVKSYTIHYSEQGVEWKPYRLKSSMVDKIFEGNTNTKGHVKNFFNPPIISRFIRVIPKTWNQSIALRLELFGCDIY
Target sequence in this assay (P04070 43-197 limits assumed): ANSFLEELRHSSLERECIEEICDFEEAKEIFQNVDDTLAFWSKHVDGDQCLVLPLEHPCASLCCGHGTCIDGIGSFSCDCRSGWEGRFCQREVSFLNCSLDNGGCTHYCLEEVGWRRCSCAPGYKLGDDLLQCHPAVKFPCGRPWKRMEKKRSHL
Target sequence in this assay (P04070 212-450 limits assumed): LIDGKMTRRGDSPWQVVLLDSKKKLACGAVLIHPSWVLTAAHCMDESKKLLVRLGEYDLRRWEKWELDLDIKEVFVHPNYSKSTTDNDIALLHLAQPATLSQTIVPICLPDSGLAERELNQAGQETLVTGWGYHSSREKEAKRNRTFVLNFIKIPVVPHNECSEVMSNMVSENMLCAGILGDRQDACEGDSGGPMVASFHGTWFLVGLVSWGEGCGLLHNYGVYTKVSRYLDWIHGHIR

APC [2] = molecular target: T1, APC; assay: amidolytic activity of APC towards S-2366; type: biochemical; design: Protein C consists of a 155 amino acid residue light chain and a 262 amino acid residue heavy chain; from tissue; host or cells: human plasma factor IX concentrate; settings: for Change in A405 /5 minutes: 10 nM APC, 250 μM PC311-325, 500 μM PC142-155, 30 minutes at 37° C., S-2366
Protocol: The amidolytic activity of APC toward the peptide substrate S-2366 was measured in the presence of various PC synthetic peptides derived from both the heavy and light chain, prepared in Example 1. For the assay, 100 μl of 10 nM APC, prepared in Example 2c2), were admixed with separate aliquots of 250 μM of PC311-325 and 500 μM Df PC142-155 prepared in TBS-BSA at pH 7.4 containing 0.02% NaN3 and 2 mM CaCl2 to form APC-peptide admixtures. After maintenance of the admixtures for 30 minutes at 37° C., 50 μl of 2.4 mM S-2366 in the same buffer were admixed to initiate the amidolytic reaction. The hydrolysis of the substrate was monitored by the change in absorbance at 405 nm at 37° C. over time using an EL312 Microplate Bio-Kinetics Reader (BIO-TEK Instruments, Inc. Vermont.). All data are mean values of duplicate measurements.
The amidolytic activity of APC toward the peptide substrate S-2366 was measured in the presence of anti-PC317-331 antibody. For the assay, 100 μl of 15 nM APC, prepared in Example 2c2), were admixed with separate aliquots of anti-PC317-331 antibody ranging in concentration from […] prepared in TBS-BSA at pH 7.4 containing 0.02% NaN3 and 2 mM CaCl2 to form APC-anti-PC317-331 antibody immunoreaction admixtures. After maintenance of the admixtures for 30 minutes at 37° C. to allow formation of immunoreaction products, 50 μl of 2.4 mM S-2366 in the same buffer was admixed to initiate the amidolytic reaction. The hydrolysis of the substrate was monitored by the change in absorbance at 405 nm over time using an EL312 Microplate Bio-Kinetics Reader (BIO-TEK Instruments, Inc. Vermont.).
Target sequence in this assay (P04070 43-197 limits assumed): as the sequence (P04070 43-197 limits assumed) above
Target sequence in this assay (P04070 212-450 limits assumed): as the sequence (P04070 212-450 limits assumed) above

inhibition at 500 µM (APC [1]; absence of phospholipids, 500 μM PC142-155) [%]	Compound	Change in A405 /5 minutes (APC [2])	effect on APC amidolytic activity towards S-2366 (APC [2]; up to 250 μM PC311-325 or 500 μM PC142-155, 30 min at 37° C.)	rate of Factor Va inactivation (%Vi /min) (APC [1]; absence of phospholipids, 5 nM APC, 40 nM Va, 50 μM PC311-325) [% Vi /min]	IC50 (APC [1]; presence of phospholipid vesicles, read-out: half-maximal inhibition of the APC-catalyzed inactivation of Factor Va) [µM]	inhibition at 50 µM (APC [1]; read-out: inhibition of APC activity) [%]
87	CSCC[C@H](NC(=O)[C@H](CCCNC(=N)N)NC(=O)[C@H](CCCCN)NC(=O)[C@H](Cc1c[nH]c2ccccc12)NC(=O)[C@@H]1CCCN1C(=O)[C@H](CCCNC(=N)N)NC(=O)CN)C(=O)N[C@@H](CCC(=O)O)C(=O)N[C@@H](CCCCN)C(=O)N[C@@H](CCCCN)C(=O)N[C@@H](CCCNC(=N)N)C(=O)N[C@@H](CO)C(=O)N[C@@H](Cc1c[nH]cn1)C(=O)N[C@@H](CC(C)C)C(=O)N[C@@H](CS)C(N)=O [PC142-155, Gly-Arg-Pro-Trp-Lys-Arg-Met-Glu-Lys-Lys-Arg-Ser-His-Leu]					
	KRNRTFVLNFIKIPV-NH2 [PC311-325, Lys-Arg-Asn-Arg-Thr-Phe-Val-Leu-Asn-Phe-Ile-Lys-Ile-Pro-Val]	0.342	no significant effect	0.5	6	87
	MHKLREGKWRPKSR [Scrambled peptide, reference compound]	0.364				
